Assay [1] deals with T1, Tyrosine-protein phosphatase non-receptor type 1 (Homo sapiens, UniProt P18031).
T1 sequence (P18031 whole entry): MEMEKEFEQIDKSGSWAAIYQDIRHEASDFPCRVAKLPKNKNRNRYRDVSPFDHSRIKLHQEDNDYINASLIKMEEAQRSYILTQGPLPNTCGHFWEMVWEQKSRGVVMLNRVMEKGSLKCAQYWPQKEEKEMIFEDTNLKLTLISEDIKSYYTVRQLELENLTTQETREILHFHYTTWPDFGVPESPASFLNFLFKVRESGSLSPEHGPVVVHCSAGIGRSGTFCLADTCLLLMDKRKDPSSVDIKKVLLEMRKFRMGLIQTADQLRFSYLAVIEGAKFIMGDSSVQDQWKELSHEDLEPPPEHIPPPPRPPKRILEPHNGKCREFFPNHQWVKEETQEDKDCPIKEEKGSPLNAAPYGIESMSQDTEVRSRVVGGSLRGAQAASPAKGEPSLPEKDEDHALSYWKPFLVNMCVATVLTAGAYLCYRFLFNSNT
Nature of the assay: Inhibition of human recombinant PTP1B catalytic domain expressed in Escherichia coli strain BL21(DE3) using […] as substrate.

For a further assay, the system named is DU-145. The assay can be described thus: Cytotoxicity against human DU145 cells assessed as reduction in cell viability after 24 hrs by MTT assay. The note with it: DU-145, 24 h. The format is cell-based. For orientation: Formazan colour is commonly taken as a measure of viable cells.
In assay [2] the target is Dual specificity tyrosine-phosphorylation-regulated kinase 1A (Homo sapiens) (UniProt Q13627). The assay can be described thus: Inhibition of GST-fused human recombinant DYRK1A expressed in Escherichia coli using woodtide as substrate after 30 mins in presence of [gamma-33P]ATP by liquid scintillation counting.
The next assay deals with MCF7. Nature of the assay: Cytotoxicity against human MCF7 cells assessed as reduction in cell viability after 24 hrs by MTT assay. The format is cell-based. The note with it: MCF7, 24 h.
Another assay has as its system HaCaT. The assay can be described thus: Cytotoxicity against human HaCaT cells assessed as reduction in cell viability after 24 hrs by MTT assay. The format is cell-based.

Our source for the IC50 and inhibition values is ChEMBL document CHEMBL4431308, “Structure and Configuration of Phosphoeleganin, a Protein Tyrosine Phosphatase 1B Inhibitor from the Mediterranean Ascidian Sidnyum elegans” (J Nat Prod, 2016).

One may read the IC50 as the midpoint of a concentration-inhibition curve.

Molecules are shown by their SMILES. Calls of active or inactive are those of the source. No cut-off for these calls is given here.

On to `O=C(O)CNC(=O)CCCCCC[C@H](O)CCCO`, for which the IC50 is 28 µM in assay [1], over 10 µM in the assay with DU-145, over 10 µM in the assay on MCF7 and over 10 µM with HaCaT. Further, in assay [2], the inhibition entry is “inactive”.

Take `CCCCCCCCCCCCCC[C@@H](OP(=O)(O)O)[C@@H](O)CCCO`: the IC50 in assay [1] is 24 µM; with DU-145 it was over 10 µM; in the assay with MCF7, over 10 µM; with HaCaT, over 10 µM. For the same compound, the inhibition result in assay [2] was “inactive”.

In the case of `CCCCCCCCCCCCCC[C@@H](OP(=O)(O)O)[C@@H](O)CC[C@@H](O)[C@@H](O)CC[C@@H](O)CCCCCCC(=O)NCC(=O)O`, the IC50 in assay [1] was 11 µM; in the assay with DU-145, over 10 µM; in the assay on MCF7 it was over 10 µM; with HaCaT, over 10 µM. Also, the inhibition result in assay [2] was “inactive”.
